The text below walks through data of patent publication US20130078718A1, “CONVERSION OF VASCULAR ENDOTHELIAL CELLS INTO MULTIPOTENT STEM-LIKE CELLS” (PRESIDENT AND FELLOWS OF HARVARD COLLEGE, priority 2010, published 2013).

The target of one assay is T1, ALK2 with ALK5 (Homo sapiens, UniProt Q04771).
T1 construct: endogenous in cells; host or cells: HUVEC
T1 sequence (Q04771 21-509): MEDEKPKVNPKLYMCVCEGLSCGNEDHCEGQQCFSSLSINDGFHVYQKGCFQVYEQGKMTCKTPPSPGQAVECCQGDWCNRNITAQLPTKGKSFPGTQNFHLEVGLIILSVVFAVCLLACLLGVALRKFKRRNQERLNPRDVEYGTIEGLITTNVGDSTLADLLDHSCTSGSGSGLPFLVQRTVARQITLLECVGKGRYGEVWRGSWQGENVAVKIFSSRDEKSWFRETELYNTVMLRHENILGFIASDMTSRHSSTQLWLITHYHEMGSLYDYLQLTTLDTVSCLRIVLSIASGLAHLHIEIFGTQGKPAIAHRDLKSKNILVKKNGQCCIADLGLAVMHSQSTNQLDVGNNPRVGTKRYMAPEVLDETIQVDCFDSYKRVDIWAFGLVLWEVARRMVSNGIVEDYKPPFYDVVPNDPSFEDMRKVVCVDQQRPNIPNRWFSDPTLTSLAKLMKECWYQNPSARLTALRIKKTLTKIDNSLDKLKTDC
The assay can be described thus: Interaction of ALK2 with ALK5: immunoprecipitation of ALK2, immunoblotting for ALK5. In kind it is cell-based. The conditions noted are these: 10 ng ml−1, 15 min. On the procedure: Human umbilical vein endothelial cells (HUVEC) and human cutaneous microvascular endothelial cells (HCMEC) isolated as previously described (35). Cells were tested for purity and found to express no markers for lymphatic endothelial cells or stromal cells (pericytes, smooth muscle cells, etc.) (36). This was reconfirmed by flow cytometry analysis (data not shown). Clonal populations were isolated with PYREX 8×8 mm cloning cylinders (Corning) and shown to respond in a manner identical to that of the cultures used for our experiments (FIG. 25B-D). Cells were grown in culture using EGM-2 medium (Cambrex), containing 10% FBS and 1% Penicillin/Streptomycin, followed by human endothelial serum free medium (Gibco) 24 h prior to all experimental conditions. Bone marrow derived mesenchymal stem cells (ScienCell Research Laboratories) were grown in mesenchymal stem cell medium (ScienCell Research Laboratories). Bone marrow derived hematopoietic stem cells (Lonza) were grown in HPGM medium (Lonza). Human corneal fibroblasts, from a stock provided by Dr. Elizabeth Hay (Harvard Medical School), were grown in RPMI medium, containing 10% FBS and 1% Penicillin/Streptomycin. Primary human osteoblasts, chondrocytes, and adipocytes and their respective growth media were obtained from Cell Applications, Inc. […] Recombinant VEGF (R&D Systems) was added to cultures at a concentration of 25 ng ml^-1. Dorsomorphin (Sigma-Aldrich) was added to cultures at a concentration of 5 μM. All experiments for this study were performed at minimum in triplicate. Immunoassays were performed using the following antibodies at concentrations (and using protocols) recommended by the respective manufacturers: […] Stressgen), phospho-Smad2 (3101), Smad2 (3122), phospho-Smad5 (9516), Smad5 (9517; […] Santa Cruz Biotechnology), osterix (ab22552), adiponectin (ab22554), N-cadherin (ab76057), NG2 (ab83508), vWF (ab68545; Abcam); CD31 (IR610; Dako), […]; GenScript); α-SMA ([…]), β-actin (A1978; Sigma-Aldrich). […] Images were acquired using a Nikon 80i fluorescence microscope.
A general note: Immunoblotting shows a protein as a band on a membrane.

In the next assay the test system is HUVEC and HCMEC. In words: Differentiation of treated endothelial cells in osteogenic, chondrogenic or adipogenic culture medium. The settings on record: for alkaline phosphatase staining (osteoblasts) / alizarin red staining (matrix calcification) / gene expression of osteocalcin, osterix, COL2A1, SOX9, adiponectin, PPARγ2 (real-time quantitative PCR) / TIE2 expression in osteoblasts, chondrocytes and adipocytes derived from endothelial cells (immunoblotting): 48 hours treatment; for alkaline phosphatase staining (osteoblasts): then 7 days osteogenic medium; for alizarin red staining (matrix calcification): then 21 days osteogenic medium; for gene expression of osteocalcin, osterix, COL2A1, SOX9, adiponectin, PPARγ2 (real-time quantitative PCR): then osteogenic 7 days, chondrogenic 14 days or adipogenic 7 days, compared to vehicle; for differentiation by alkaline phosphatase, alizarin red, alcian blue or oil red O staining / protein expression of osterix, SOX9 and PPARγ2 (immunoblotting) / expression of endothelial markers TIE2, vWF, VE-cadherin, TIE1 in osteoblasts, chondrocytes, adipocytes derived from endothelial cells (immunoblot): 48 h treatment; for differentiation by alkaline phosphatase, alizarin red, alcian blue or oil red O staining: then differentiation medium 7-21 d; for protein expression of osterix, SOX9 and PPARγ2 (immunoblotting): then osteogenic 7 d, chondrogenic 14 d or adipogenic 7 d; for TIE2 expression in osteoblasts, chondrocytes and adipocytes derived from endothelial cells (immunoblotting) / expression of endothelial markers TIE2, vWF, VE-cadherin, TIE1 in osteoblasts, chondrocytes, adipocytes derived from endothelial cells (immunoblot): HCMEC, then differentiation medium. In kind it is cell-based, human. On the procedure:
RNA extractions were performed using the RNeasy Mini kit (Qiagen) and protocol. RNA samples were submitted to a core facility (Biopolymers Facility, Department of Genetics, Harvard Medical School) where real-time PCR experiments were conducted using the Syber Green PCR system (ABI) on an ABI 7500 cycler, with 40 cycles per sample. Cycling temperatures were as follows: denaturing 95° C.; annealing 60° C.; extension, 70° C. The following primers (Integrated DNA Technologies) were used: […]
Cells were grown in StemPro osteogenic, chondrogenic, or adipogenic culture medium (Invitrogen). Alkaline phosphatase staining was performed using the alkaline phosphatase kit and protocol (Sigma-Aldrich) on cultures grown in osteogenic medium for 7 days to detect osteoblasts. Alizarin Red (Sigma-Aldrich) staining was performed for 30 minutes on cultures grown in osteogenic medium for 21 days to detect matrix calcification. Alcian Blue (Sigma) staining was used to stain chondrocyte proteoglycans for 5 minutes in cultures grown in chondrogenic medium for 14 days. Oil Red O (Sigma-Aldrich) staining was performed for 15 minutes on cultures grown in adipogenic medium for 7 days.
Cells were grown in StemPro osteogenic, chondrogenic, or adipogenic culture medium (Invitrogen). Alkaline phosphatase staining was performed using the alkaline phosphatase kit and protocol (Sigma-Aldrich) on cultures grown in osteogenic medium for 7 d to detect osteoblasts. Alizarin Red (Sigma-Aldrich) staining was performed for 30 min on cultures grown in osteogenic medium for 21 d to detect matrix calcification. Alcian Blue (Sigma) staining was used to stain chondrocyte proteoglycans for 5 minutes in cultures grown in chondrogenic medium for 14 d. Oil Red O (Sigma-Aldrich) staining was performed for 15 min on cultures grown in adipogenic medium for 7 d. For in vivo analysis, endothelial cells were labeled with fluorescent quantum dots using the Qtracker 525 Cell Labeling Kit (Invitrogen). Cells were treated in culture to induce EndMT then absorbed into OPLA polylactic acid scaffolds (BD Biosciences). Scaffolds were surgically implanted subcutaneously into immunodeficient nude mice (Nu/Nu strain; Charles River Laboratories). Local injection of StemPro differentiation medium (described above) was performed in the area of the implants every 72 h for 6 weeks. Scaffolds were cryosectioned and stained with Alizarin Red, Alcian Blue, or Oil Red O as described above. All procedures were reviewed and approved by the Institutional Animal Care and Use Committee at Harvard Medical School.

As to “BMP4: Recombinant BMP4 protein (R&D Systems), ALK2 activating ligand, used at 10 ng/mL”, the “ALK5 in ALK2 immunoprecipitates” value in the assay with ALK2 with ALK5 is listed as “presence of ALK5”. Besides, in the assay on HUVEC and HCMEC, the “alkaline phosphatase staining (osteoblasts)” value was “strong positive staining”; the “alizarin red staining (matrix calcification)” value was “high levels of matrix calcification”; the “gene expression of osteocalcin, osterix, COL2A1, SOX9, adiponectin, PPARγ2 (real-time quantitative PCR)” value is “dramatic increases”; the “differentiation by alkaline phosphatase, alizarin red, alcian blue or oil red O staining” value is recorded as “differentiated into other cell types”. Moreover, in the assay with HUVEC and HCMEC, the “protein expression of osterix, SOX9 and PPARγ2 (immunoblotting)” value is reported as “increases in protein expression”; the “TIE2 expression in osteoblasts, chondrocytes and adipocytes derived from endothelial cells (immunoblotting)” value is “strong expression of TIE2”; the “expression of endothelial markers TIE2, vWF, VE-cadherin, TIE1 in osteoblasts, chondrocytes, adipocytes derived from endothelial cells (immunoblot)” value is recorded as “showed expression of these endothelial markers”.

“TGF-β2: Recombinant TGF-β2 protein (R&D Systems), ALK2 activating ligand, used at 10 ng/mL”: in the assay with ALK2 with ALK5, the “ALK5 in ALK2 immunoprecipitates” value is recorded as “presence of ALK5”. For the same substance, in the assay on HUVEC and HCMEC, the “alkaline phosphatase staining (osteoblasts)” value is “strong positive staining”; the “alizarin red staining (matrix calcification)” value was “high levels of matrix calcification”; the “gene expression of osteocalcin, osterix, COL2A1, SOX9, adiponectin, PPARγ2 (real-time quantitative PCR)” value is reported as “dramatic increases”; the “differentiation by alkaline phosphatase, alizarin red, alcian blue or oil red O staining” value is “differentiated into other cell types”. Also, in the assay with HUVEC and HCMEC, the “protein expression of osterix, SOX9 and PPARγ2 (immunoblotting)” value is given as “increases in protein expression”; the “TIE2 expression in osteoblasts, chondrocytes and adipocytes derived from endothelial cells (immunoblotting)” value is recorded as “strong expression of TIE2”; the “expression of endothelial markers TIE2, vWF, VE-cadherin, TIE1 in osteoblasts, chondrocytes, adipocytes derived from endothelial cells (immunoblot)” value is listed as “showed expression of these endothelial markers”. In addition, in the assay on HUVEC and HCMEC (three clonal populations of HUVEC and HCMEC, differentiation medium), the “staining of clonal populations for osteoblasts, chondrocytes or adipocytes (AP, AR, AB, OR)” value is listed as “stained positive”.
